In patent publication US20220023258A1, “METHODS OF TREATING CONDITIONS RELATED TO THE S1P1 RECEPTOR” (Arena Pharmaceuticals, Inc., priority 2018, published 2022):
“Also recorded” adds a separate entry of the source. Structures can show the parent of a compound that is named as a salt.

Key:
[1] = system: lymphocytes; assay: Multiple ascending dose study: lymphocyte counts; assay type: in vivo, human; settings: for Lymphocytes On Treatment Mean (SD) / Lymphocytes Percent Change from Baseline Mean / Lymphocytes Percent Change from Baseline Median / Lymphocytes Percent Change from Baseline Min, Max: day 21
Protocol: A randomized, double-blind, placebo-controlled, sequential, ascending, multiple dose study to assess the safety, tolerability, and pharmacokinetics of the L-arginine salt of Compound 1 administered to healthy adult subjects was conducted. This study was designed to evaluate the safety, tolerability, pharmacokinetics, and pharmacodynamics of the L-arginine salt of Compound 1.
Cohort 1 was dosed with 0.7 mg (by administering two 0.35 mg formulations) for 21 days. Cohort 2 was dosed with 1.35 mg (by administering both a 0.35 mg formulation and a 1 mg formulation) for 21 days. Cohort 3 was dosed with 2.0 mg for 21 days. Cohort 4 was dosed with 0.35 mg for 7 days and then with 2.0 mg for 14 days. Cohort 5 was dosed with 0.5 for 7 days and then with 3.0 mg (by administering both a 1 mg formulation and a 2 mg formulation) for 14 days.

[2] = system: patients with ulcerative colitis; assay: Dose-ranging study in ulcerative colitis: Mayo scores, endoscopic improvement, remission; assay type: in vivo, human; settings: for improvement in 2-component Mayo Score relative to placebo / improvement in Total Mayo Score relative to placebo: Week 12; for proportion of patients achieving clinical remission, defined by the 3-component Mayo Score / improvement in 3-component Partial Mayo Score relative to placebo / patients who achieved endoscopic improvement: week 12
From the text: The treatment formulation was composed of immediate-release, hard gelatin capsules containing L-arginine salt of Compound 1. The placebo was composed of hard gelatin capsules containing microcrystalline cellulose. […] The primary objective of this proof-of-concept study was to determine the effect of treatment with the L-arginine salt of Compound 1 in changing 3-component Mayo Clinic score (score ranging from 0 to 9, including stool frequency, rectal bleeding and findings on endoscopy) at 12 weeks. […] ANCOVA model, adjusted for current oral corticosteroid use, prior exposure to TNF-alpha antagonists, and baseline value, was used to estimate changes in Mayo Clinic Score. Mantel-Haenszel method (estimated treatment difference by adjusting current oral corticosteroid use and prior exposure to TNF-alpha antagonists) used to estimate proportion difference for dichotomous parameters. Missing individual Mayo subscores impacting efficacy measures were imputed using multiple imputation methodology with observed case analysis for sensitivity. […] Hierarchical closed testing procedure for primary and secondary endpoints at 0.05 alpha level was used.

[3] = system: lymphocytes; assay: Dose-ranging study in ulcerative colitis: lymphocyte counts; assay type: in vivo, human; settings: 12 weeks
From the text: Exploratory endpoints included change from baseline in lymphocyte counts at Weeks 1, 2, 4, 8, and 12; proportion of patients achieving clinical remission at Week 12; and proportion of patients who achieve clinical response at Week 12.

[4] = system: patients with ulcerative colitis; assay: Dose-ranging study in ulcerative colitis: safety; settings: for serious adverse events (SAEs): placebo 11.1%;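 on all read-outs here: Double-blind randomized parallel-group trial versus placebo, with the study drug given orally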
Protocol: Patients were instructed to take their capsule on an empty stomach (overnight fast of approximately 8 hours) and to avoid eating for approximately 1 hour after dosing.

[5] = system: healthy adult subjects; assay: Multiple ascending dose study: safety and tolerability
Protocol: The following safety assessments were conducted: physical examinations with ophthalmoscopy, clinical laboratory tests (serum chemistry, coagulation, and urinalysis), vital signs, continuous telemetry (12 lead ECG), safety ECGs, pulmonary function testing (PFT), serum protein electrophoresis (SPEP) and serum immunoelectrophoresis (IEP), and adverse event reporting.

[6] = 0.35 mg for 7 days then 2.0 mg for 14 days
[7] = 0.5 mg for 7 days then 3.0 mg for 14 days

## O=C(O)C[C@H]1CCc2c1[nH]c1ccc(OCc3ccc(C4CCCC4)c(C(F)(F)F)c3)cc21 [L-arginine salt of Compound 1]
[1]; [6]
  Lymphocytes On Treatment Mean (SD): 0.62 (0.18) 10^3/μl
  Lymphocytes Percent Change from Baseline Mean: −67.34%
  Lymphocytes Percent Change from Baseline Median: −67.54%
  Lymphocytes Percent Change from Baseline Min, Max: −77.27 to −57.14%
[1]; [7]
  Lymphocytes On Treatment Mean (SD): 0.62 (0.25) 10^3/μl
  Lymphocytes Percent Change from Baseline Mean: −66.16%
  Lymphocytes Percent Change from Baseline Median: −65.02%
  Lymphocytes Percent Change from Baseline Min, Max: −85.19 to −53.85%
[1]; 0.7 mg for 21 days
  Lymphocytes On Treatment Mean (SD): 1.06 (0.28) 10^3/μl
  Lymphocytes Percent Change from Baseline Mean: −41.03%
  Lymphocytes Percent Change from Baseline Median: −40.37%
  Lymphocytes Percent Change from Baseline Min, Max: −55.56 to −23.08%
[1]; 1.35 mg for 21 days
  Lymphocytes On Treatment Mean (SD): 0.89 (0.32) 10^3/μl
  Lymphocytes Percent Change from Baseline Mean: −53.43%
  Lymphocytes Percent Change from Baseline Median: −51.85%
  Lymphocytes Percent Change from Baseline Min, Max: −68.75 to −30.77%
[1]; 2.0 mg for 21 days
  Lymphocytes On Treatment Mean (SD): 0.62 (0.18) 10^3/μl
  Lymphocytes Percent Change from Baseline Mean: −68.81%
  Lymphocytes Percent Change from Baseline Median: −69.44%
  Lymphocytes Percent Change from Baseline Min, Max: −80.00 to −55.56%
[1]; multiple dosing 21 days
  dose with maximal effect on lymphocyte lowering (dose-dependent): 2 mg
[2]; 1 mg q.d., p=0.086
  improvement in 2-component Mayo Score relative to placebo: 0.39
[2]; 1 mg q.d., p=0.128
  improvement in Total Mayo Score relative to placebo: 0.60
[2]; 1 mg q.d., p=0.136
  proportion of patients achieving clinical remission, defined by the 3-component Mayo Score: 16.0%
[2]; 1 mg q.d., p=0.146
  improvement in 3-component Partial Mayo Score relative to placebo: 0.43
[2]; 1 mg q.d., p=0.306
  patients who achieved endoscopic improvement: 22.5%
[2]; 1 mg q.d., p=0.077
  Remission defined by the 4-component Total Mayo Score: 15.4%
[2]; 2 mg q.d., p=0.010
  improvement in Total Mayo Score relative to placebo: 1.27
[2]; 2 mg q.d., p<0.001 vs placebo 8.1%
  proportion of patients achieving clinical remission, defined by the 3-component Mayo Score: 33.0%
[2]; 2 mg q.d., p=0.003 vs placebo 17.8%
  patients who achieved endoscopic improvement: 41.8%
[2]; 2 mg q.d., p=0.009
  improvement in 3-component Partial Mayo Score relative to placebo: 0.99
[2]; dose not printed in sentence (high dose), p=0.002
  improvement in 2-component Mayo Score relative to placebo: 0.84
[2]; dose not printed in sentence (high dose), p=0.004 vs placebo 6.0%
  Remission defined by the 4-component Total Mayo Score: 24.5%
[3]; 1 mg q.d.
  reduction in lymphocytes relative to placebo: 37%
[3]; 2 mg q.d., p<0.001
  reduction in lymphocytes relative to placebo: 57%
[4]; 1 mg (n = 52)
  % of Patients with Serious TEAE: (5.8) %
  % of Patients with TEAE Leading to Discontinuation of Study Drug: (5.8) %
  % of Patients with any TEAE: (59.6) %
  Number of Deaths of Any Reason: 0
  Number of Patients with Serious TEAE: 3
  Number of Patients with TEAE Leading to Discontinuation of Study Drug: 3
  Number of Patients with any TEAE: 31
[4]; 1 mg and 2 mg q.d., 12 weeks
  discontinuations from study related to bradycardia or AV block: no discontinuations from study related to bradycardia or AV block
  liver function tests (LFTs) compared to placebo: no increases in liver function tests
  reports of macular edema or pulmonary function test abnormalities: no reports of macular edema or pulmonary function test abnormalities; also recorded: no reports of macular edema; and no reports of abnormal pulmonary function tests
  serious adverse events related to heart rate changes or AV block: No serious adverse events related to heart rate changes or AV block
  severe or life-threatening infection: No severe or life-threatening infection occurred
  tolerability: well tolerated
[4]; 1 mg q.d.
  serious adverse events (SAEs): 5.8%
[4]; 2 mg (n = 50)
  % of Patients with TEAE Leading to Discontinuation of Study Drug: (8.0) %
  % of Patients with any TEAE: (56.0) %
  Number of Deaths of Any Reason: 0
  Number of Patients with Serious TEAE: 0
  Number of Patients with TEAE Leading to Discontinuation of Study Drug: 4
  Number of Patients with any TEAE: 28
[4]; 2 mg q.d.
  serious adverse events (SAEs): 0%
[4]; Day 1, any time point, both 1 mg and 2 mg groups
  mean change (decrease) in heart rate, hourly ECGs: < 10 bpm
[4]; after Day 1 through 12 weeks, either dose group (1 mg, 2 mg)
  mean decrease in heart rate from baseline: ≤ 6 bpm
[5]; 1.35 mg dose
  mildly abnormal reproducible (NCS) pulmonary function test findings (FEV1 below 80%, FVC) post-dose: One subject
[5]; 2 mg group
  subjects who developed new 1″ degree atrioventricular block: 1 subject
  subjects with mildly abnormal post-treatment liver function tests (ALT & AST >2× ULN): 1 subject
[5]; 0.5, 3 mg group
  subjects who developed new 1″ degree atrioventricular block: 1 subject
[5]; 0.5 escalating to 3 mg group
  subjects with mildly abnormal post-treatment liver function tests (ALT & AST >2× ULN): 1 subject
[5]; all dose levels
  SAEs or deaths: No SAEs or deaths occurred
  ophthalmoscopy findings: No clinically significant change from baseline
  other safety issues (vital signs, ECGs, PFTs, ophthalmoscopy, clinical laboratory tests): no other clinically significant safety issues
  second degree heart block: No second degree heart block was found
  subjects discontinued due to an adverse event: No subjects were discontinued due to an adverse event
[5]; all dose levels, 21 days
  most common adverse events: contact dermatitis and leukopenia, followed by constipation, diarrhea, nausea, and abdominal pain
  severity of adverse events: majority of adverse events were mild
  tolerability: tolerated at all dose levels; also recorded: well tolerated at all doses tested
